# Measured values: patent US9572817B2, “Use of androgens for vascular regeneration and endothelial repair” (THE HEART RESEARCH INSTITUTE LTD., priority 2008, dated 2017)
# Read-outs that look alike come from different tables or passages of the source.
# Legend:
# [1] = intramuscular injection; cited from earlier work
# [2] = test system: Human Umbilical Endothelial Cells (HUVEC); test: EC migration (scratch assay and boyden chamber assay); format: cell-based
# Description: (§1) The effect of the non-aromatizable androgen dihydrotestosterone was assessed on three key angiogenic processes: endothelial cell (EC) migration, EC proliferation and EC tubulogenesis. Cells were treated with 0, 4, 40 or 400 nM dihydrotestosterone (DHT, a potent androgen) with and without the androgen-receptor antagonist hydroxyflutamide (HF).
# EC migration was assessed via a scratch assay and boyden chamber assay. Human Umbilical Endothelial Cells (HUVEC) monolayers were grown in the presence of varying doses of DHT±Hydroxyflutamide (HF), and either scratched or placed on top of permeable membranes. EC migration across the culture surface or through the membranes was assessed at 24 h and 6 h respectively via light and fluorescence microscopy respectively.
# HUVECs [3] = test: EC tubulogenesis (co-culture assay of fibroblasts and ECs); format: cell-based, Human; settings: for EC tubulogenesis vs. 100% control value: donor cells; for tubule formation vs. 100% control value: male EC, chronic exposure (72 h)
# Description: The effect of the non-aromatizable androgen dihydrotestosterone was assessed on three key angiogenic processes: endothelial cell (EC) migration, EC proliferation and EC tubulogenesis.
# Co-cultures were grown in the presence of DHT±Hydroxyflutamide (HF). After 72 h, co-cultures were assessed using immunohistochemistry for EC specific markers and image analysis software.
# HUVECs [4] = test: EC proliferation (direct counting of cell numbers and MTS Assay); format: cell-based, Human
# Description: as §1
# EC proliferation was assessed using two methods: direct counting of cell numbers and the MTS Assay. HUVECs were seeded at a density of 1×10^4 cells/ml (12 well plates for counting, 96 well plates for MTS assay) in endothelial growth media in the presence of varying doses DHT±Hydroxyflutamide (HF). After 48 h, cells were either harvested from 12 well plates and counted or incubated with MTS reagent in the 96 well plates with absorbance measured subsequently at 490 nm measured.
# Male C57B16/J mice [5] = settings: castrate+DHT male mice, after 7 days; control 0.39±0.03
# Description: (§2) Male C57B16/J mice were either castrated or sham-castrated after reaching sexual maturity (6 weeks). After a period of 10 days, 50% of both castrated and sham-castrated mice received a 1 cm subcutaneous silastic implant containing DHT.
# Male C57B16/J mice [6] = settings: castrate+DHT
# Description: as §2
# Mononuclear cells were harvested from the spleens and bone marrow of all animals and assessed via cell culture and flow cytometry. Cells were and stained with fluorescein isothiocyanate-lectin and/or 1,1(-dioctadecyl-3,3,3(,3(-tetramethylindocarbocyanine (DiI)-labelled, acetylated low-density lipoprotein (Vasa M, et al. Number and migratory activity of circulating endothelial progenitor cells inversely correlate with risk factors for coronary artery disease. Circ Res. 2001; 89:e1-e7).
structure (smiles),measurement,setting,value
CCCCCCC(=O)O[C@H]1CC[C@H]2[C@@H]3CCC4=CC(=O)CC[C@]4(C)[C@H]3CC[C@]12C [Testosterone enanthate],time to peak serum testosterone levels after administration,[1],24 h
"C[C@]12CCC(=O)C[C@@H]1CC[C@@H]1[C@@H]2CC[C@]2(C)[C@@H](O)CC[C@@H]12 [DHT, 5α-dihydrotestosterone]",EC migration vs. 100% control value,"[2]; donor cells, DHT 4 nM",90±5%
same,EC migration vs. 100% control value,"[2]; donor cells, DHT 40 nM",96±5%
same,EC migration vs. 100% control value,"[2]; donor cells, DHT 400 nM",93±8%
same,EC migration vs. 100% control value,"[2]; male EC, DHT 4 nM, after 24 h",138±7%
same,EC migration vs. 100% control value,"[2]; male EC, DHT 40 nM, after 24 h",280±23%
same,EC migration vs. 100% control value,"[2]; male EC, DHT 400 nM, after 24 h",306±32%
same,EC tubulogenesis vs. 100% control value,HUVECs [3]; DHT 4 nM,92±3%
same,EC tubulogenesis vs. 100% control value,HUVECs [3]; DHT 40 nM,90±3%
same,EC tubulogenesis vs. 100% control value,HUVECs [3]; DHT 400 nM,92±3%
same,tubule formation vs. 100% control value,HUVECs [3]; DHT 4 nM,115±7%
same,tubule formation vs. 100% control value,HUVECs [3]; DHT 40 nM,137±5%
same,tubule formation vs. 100% control value,HUVECs [3]; DHT 400 nM,157±6%
same,EC proliferation vs. 100% control value,"HUVECs [4]; donor cells, DHT 4 nM",92±5%
same,EC proliferation vs. 100% control value,"HUVECs [4]; donor cells, DHT 40 nM",92±3%
same,EC proliferation vs. 100% control value,"HUVECs [4]; donor cells, DHT 400 nM",89±6%
same,EC proliferation vs. 100% control value,"HUVECs [4]; male EC, DHT 4 nM, after 48 h",112±8%
same,EC proliferation vs. 100% control value,"HUVECs [4]; male EC, DHT 40 nM, after 48 h",118±5%
same,EC proliferation vs. 100% control value,"HUVECs [4]; male EC, DHT 400 nM, after 48 h",127±4%
same,Laser Doppler Perfusion Index (LDPI) ischemic/non-ischemic ratio,Male C57B16/J mice [5],0.6±0.06
same,spleen angiogenic cells,"Male C57B16/J mice [6]; absence of ischaemia, control 15.4±1, castrated 10.3±0.9",10±0.9 Angiogenic cells/×200 field
same,spleen angiogenic cells,"Male C57B16/J mice [6]; presence of ischaemia, control 22±1.7, castrated 16±0.8",26±1.3 Angiogenic cells/×200 field
same,bone marrow angiogenic cells,"Male C57B16/J mice [6]; presence of ischaemia, control 60±2.4, castrate 26±1.7",36±3 Angiogenic cells/×200 field
